Experimental data published in US9050346B2, “Bromodomain inhibitors” (AbbVie Inc., priority 2013, dated 2015).

How the values were obtained:
[1] = target: T1, BRD4 (BDI_K57-E168) (Homo sapiens, UniProt O60885); assay: TR-FRET bromodomain binding assay, BRD4 first bromodomain; conditions: His-tagged BD1, 100 nM Alexa647 probe; Ki calculated from IC50; dilution protocol A-G
T1 construct: BD1: amino acids K57-E168; made in house
Protocol: (§1) A time-resolved fluorescence resonance energy transfer (TR-FRET) assay was used to determine the affinities of compounds of the Examples listed in Table 1 for each bromodomain of BRD4. His-tagged first (BD1: amino acids K57-E168) and second (BD2: amino acids E352-E168) bromodomains of BRD4 were expressed and purified. An Alexa647-labeled BET-inhibitor was used as the fluorescent probe in the assay.
(§2) Compound dilution series were prepared in DMSO via an approximately 3-fold serial dilution from one of the following: • Assay method A: 2.5 mM-800 nM • Assay method B: 2.5 mM-797 nM • Assay method C: 1250 μM-21 nM • Assay method D: 500 μM-8.5 nM • Assay method E: 0.47 mM to 7.8 nM • Assay method F: 250 μM-4.2 nM • Assay method G: 0.047 mM to 0.78 nM or 5-fold serial dilution from Assay Method A or Assay Method B.
(§3) For Assay methods A, C, D, and F: Compounds were then diluted 6:100 in assay buffer (20 mM Sodium Phosphate, pH 6.0, 50 mM NaCl, 1 mM Ethylenediaminetetraacetic acid, 0.01% Triton X-100, 1 mM DL-Dithiothreitol) to yield 3× working solutions. Six microliters (μL) of the working solution was then transferred to white, low-volume assay plates (Costar #3673). A 1.5× assay mixture containing His-tagged bromodomain, Europium-conjugated anti-His antibody (Invitrogen PV5596) and the Alexa-647-conjugated probe molecule was also prepared. Twelve μL of this solution were added to the assay plate to reach a final volume of 18 μL.
(§4) For Assay methods B, E, and G: Compound dilutions were added directly into white, low-volume assay plates (Perkin Elmer Proxiplate 384 Plus#6008280) using a Labcyte Echo in conjunction with Labcyte Access and Thermo Multidrop CombinL robotics. Compounds were then suspended in eight microliters (μL) of assay buffer (20 mM Sodium Phosphate, pH 6.0, 50 mM NaCl, 1 mM Ethylenediaminetetraacetic acid disodium salt dihydrate, 0.01% Triton X-100, 1 mM DL-Dithiothreitol) containing His-tagged bromodomain, Europium-conjugated anti-His antibody (Invitrogen PV5596) and Alexa-647-conjugated probe.
(§5) The final concentration of 1× assay mixture for assay methods A, B, C, D, E, F, and G contains 2% DMSO, 8 nM His-tagged bromodomain, 1 nM Europium-conjugated anti-His-tag antibody and 100 nM or 30 nM probe (for BDI or BDII, respectively) and compound concentration in the range of: 50 μM-16 nM for method A, 49.02 μM-15.63 nM for method B, 25 μM-423 pM for method C, 10 μM-169 pM for method D, 9.19 μM-150 pM for method E, 5 μM-85 pM for method F, and 0.92 μM-15 pM for method G.
(§6) After a one-hour equilibration at room temperature, TR-FRET ratios were determined using an Envision multilabel plate reader (Ex 340, Em 495/520).
(§7) TR-FRET data were normalized to the means of 24 no-compound controls (“high”) and 8 controls containing 1 μM un-labeled probe (“low”). Percent inhibition was plotted as a function of compound concentration and the data were fit with the 4 parameter logistic equation to obtain IC50s Inhibition constants (Ki) were calculated from the IC50s, probe Kd and probe concentration. Typical Z′ values were between 0.65 and 0.75. The minimum significant ratio was determined to evaluate assay reproducibility (Eastwood et al., (2006) J Biomol Screen, 11: 253-261). The MSR was determined to be 2.03 for BDI and 1.93 for BDII, and a moving MSR (last six run MSR overtime) for both BDI and BDII was typically <3.

[2] = target: T2, BRD4 (BDII_E352-M457) (Homo sapiens, UniProt O60885); assay: TR-FRET bromodomain binding assay, BRD4 second bromodomain
T2 construct: made in house
Protocol: as §1, §2, §3, §4, §5, §6, §7

[3] = system: breast cancer cell line MX-1; assay: MX-1 cell line proliferation assay (3-day, Cell Titer Glo); format: cell-based; conditions: Homo sapiens, MX1, MX-1 cells, 72 h, top concentration 3 μM, read-out: Cellular proliferation: EC50
Protocol: The impact of compounds of the Examples on cancer cell proliferation was determined using the breast cancer cell line MX-1 (ATCC) in a 3-day proliferation assay and the data are reported in Table 1. MX-1 cells were maintained in RPMI 1640 medium (Sigma) supplemented with 10% FBS at 37 C.° and an atmosphere of 5% CO2. For compound testing, MX-1 cells were plated in 96-well black bottom plates at a density of 5000 cells/well in 90 μL of culture media and incubated at 37° overnight to allow cell adhesion and spreading. Compound dilution series were prepared in DMSO via a 3-fold serial dilution from 3 mM to 0.1 μM. The DMSO dilution series were then diluted 1:100 in phosphate buffered saline, and 10 μL of the resulted solution were added to the appropriate wells of the MX-1 cell plate. The final compound concentrations in the wells were 3, 1, 0.3, 0.1, 0.03, 0.01, 0.003, 0.001, 0.0003 and 0.0001 μM.
Luminescence readings from the Cell Titer Glo assay were normalized to the DMSO treated cells and analyzed using the GraphPad Prism software with sigmoidal curve fitting to obtain EC50s. The minimum significant ratio (MSR) was determined to evaluate assay reproducibility (Eastwood et al., (2006) J Biomol Screen, 11: 253-261).

Structure (SMILES)	Ki [1] [nM]	Ki [2] [nM]	EC50 [3] [nM]
Cc1[nH]c(-c2ccccc2Oc2ccccc2)c2cc(C(=O)Nc3ccncc3)[nH]c(=O)c12 [Example 28, 3-methyl-4-oxo-1-(2-phenoxyphenyl)-N-(pyridin-4-yl)-4,5-dihydro-2H-pyrrolo[3,4-c]pyridine-6-carboxamide]	42.7	16.8	515
Cc1[nH]c(-c2ccccc2Oc2ccccc2)c2cc(C(=O)NC(C)(C)C#N)[nH]c(=O)c12 [Example 52, N-(2-cyanopropan-2-yl)-3-methyl-4-oxo-1-(2-phenoxyphenyl)-4,5-dihydro-2H-pyrrolo[3,4-c]pyridine-6-carboxamide]	36.9	97.5	763
Cc1[nH]c(-c2cc(F)ccc2OCC2CC2)c2cc(-c3nc(-c4cnccn4)no3)[nH]c(=O)c12 [Example 71, 1-(2-(cyclopropylmethoxy)-5-fluorophenyl)-3-methyl-6-(3-(pyrazin-2-yl)-1,2,4-oxadiazol-5-yl)-2H-pyrrolo[3,4-c]pyridin-4(5H)-one]	38.5	659	204
CCOC(=O)c1cc2c(-c3cc(F)ccc3OCC3CC3)[nH]c(C)c2c(=O)[nH]1 [Example 69, ethyl 1-[2-(cyclopropylmethoxy)-5-fluorophenyl]-3-methyl-4-oxo-4,5-dihydro-2H-pyrrolo[3,4-c]pyridine-6-carboxylate]	52.2	416	> 3000
Cc1[nH]c(-c2ccccc2Oc2ccccc2)c2nc[nH]c(=O)c12 [Example 85, 5-methyl-7-(2-phenoxyphenyl)-3,6-dihydro-4H-pyrrolo[3,4-d]pyrimidin-4-one]	92.4	720	1240
COC(=O)C1Cc2c(-c3ccccc3Oc3ccccc3)[nH]c(C)c2C(=O)N1 (centres unmarked) [Example 97, methyl 3-methyl-4-oxo-1-(2-phenoxyphenyl)-4,5,6,7-tetrahydro-2H-pyrrolo[3,4-c]pyridine-6-carboxylate]	24.3	157	> 3000
CCOC(=O)c1nc2c(-c3ccccc3Oc3ccccc3)[nH]c(C)c2c(=O)[nH]1 [Example 87, ethyl 5-methyl-4-oxo-7-(2-phenoxyphenyl)-4,6-dihydro-3H-pyrrolo[3,4-d]pyrimidine-2-carboxylate]	82.3	1180	> 3000
Cc1[nH]c(-c2ccccc2Oc2ccccc2)c2cc(-c3nc(-c4ccccn4)no3)[nH]c(=O)c12 [Example 67, 3-methyl-1-(2-phenoxyphenyl)-6-(3-(pyridin-2-yl)-1,2,4-oxadiazol-5-yl)-2H-pyrrolo[3,4-c]pyridin-4(5H)-one]	9.45	78	80.5
Cc1[nH]c(-c2cc(Cl)ccc2Oc2ccc(F)cc2F)c2cc(C(N)=O)[nH]c(=O)c12 [Example 32, 1-[5-chloro-2-(2,4-difluorophenoxy)phenyl]-3-methyl-4-oxo-4,5-dihydro-2H-pyrrolo[3,4-c]pyridine-6-carboxamide]	22.8	158	102
Cc1[nH]c(-c2ccccc2Oc2ccccc2)c2cc(-c3nc(-c4ccncc4)no3)[nH]c(=O)c12 [Example 45, 3-methyl-1-(2-phenoxyphenyl)-6-(3-(pyridin-4-yl)-1,2,4-oxadiazol-5-yl)-2H-pyrrolo[3,4-c]pyridin-4(5H)-one]	10.5		180

Now those with a lower Ki [1], led by results:

Ki [1] [nM]	Ki [2] [nM]	EC50 [3] [nM]	Structure (SMILES)
7.57	28.5	71.1	Cc1[nH]c(-c2ccccc2Oc2ccccc2)c2cc(-c3nc(-c4cnccn4)no3)[nH]c(=O)c12 [Example 65, 3-methyl-1-(2-phenoxyphenyl)-6-(3-(pyrazin-2-yl)-1,2,4-oxadiazol-5-yl)-2H-pyrrolo[3,4-c]pyridin-4(5H)-one]
6.13	190	117	Cc1[nH]c(-c2ccccc2Oc2ccccc2)c2cc(C(=O)N[C@@H]3CCN(C)C3)[nH]c(=O)c12 [Example 51, (R)-3-methyl-N-(1-methylpyrrolidin-3-yl)-4-oxo-1-(2-phenoxyphenyl)-4,5-dihydro-2H-pyrrolo[3,4-c]pyridine-6-carboxamide]
3.67	59.7	223	Cc1[nH]c(-c2ccccc2Oc2ccccc2)c2cc(C(=O)NCC3CNCC3(F)F)[nH]c(=O)c12 (centres unmarked) [Example 59, N-[(4,4-difluoropyrrolidin-3-yl)methyl]-3-methyl-4-oxo-1-(2-phenoxyphenyl)-4,5-dihydro-2H-pyrrolo[3,4-c]pyridine-6-carboxamide]
3.33	19.8	41.5	COC(=O)c1cc2c(-c3cc(NS(C)(=O)=O)ccc3Oc3ccccc3)[nH]c(C)c2c(=O)[nH]1 [Example 3, methyl 3-methyl-1-(5-(methylsulfonamido)-2-phenoxyphenyl)-4-oxo-4,5-dihydro-2H-pyrrolo[3,4-c]pyridine-6-carboxylate]
2.28	7.11	29.2	Cc1[nH]c(-c2ccccc2Oc2ccccc2)c2cc(-c3nc(Cn4cncn4)no3)[nH]c(=O)c12 [Example 64, 6-(3-((1H-1,2,4-triazol-1-yl)methyl)-1,2,4-oxadiazol-5-yl)-3-methyl-1-(2-phenoxyphenyl)-2H-pyrrolo[3,4-c]pyridin-4(5H)-one]
1.66	6.08	270	Cc1[nH]c(-c2cc(NS(C)(=O)=O)ccc2Oc2ccc(F)cc2F)c2cc(C(N)=O)[nH]c(=O)c12 [Example 19, 1-(2-(2,4-difluorophenoxy)-5-(methylsulfonamido)phenyl)-3-methyl-4-oxo-4,5-dihydro-2H-pyrrolo[3,4-c]pyridine-6-carboxamide]
1.64	2.39	146	Cc1[nH]c(-c2cc(NS(C)(=O)=O)ccc2Oc2ccccc2)c2cc(C(N)=O)[nH]c(=O)c12 [Example 20, 3-methyl-1-(5-(methylsulfonamido)-2-phenoxyphenyl)-4-oxo-4,5-dihydro-2H-pyrrolo[3,4-c]pyridine-6-carboxamide]
1.23	3.31	32.9	CCOC(=O)c1cc2c(-c3cc(NS(=O)(=O)CC)ccc3Oc3ccccc3)[nH]c(C)c2c(=O)[nH]1 [Example 6, ethyl 1-(5-(ethylsulfonamido)-2-phenoxyphenyl)-3-methyl-4-oxo-4,5-dihydro-2H-pyrrolo[3,4-c]pyridine-6-carboxylate]
